We go through 14 compounds from ChEMBL document CHEMBL1138992, “New benzimidazoles as thrombopoietin receptor agonists” (Bioorg Med Chem Lett, 2006).

SMILES strings stand for the structures.

In one experiment the target is T1, Thrombopoietin receptor (Homo sapiens, UniProt P40238).
T1 sequence (P40238 whole entry): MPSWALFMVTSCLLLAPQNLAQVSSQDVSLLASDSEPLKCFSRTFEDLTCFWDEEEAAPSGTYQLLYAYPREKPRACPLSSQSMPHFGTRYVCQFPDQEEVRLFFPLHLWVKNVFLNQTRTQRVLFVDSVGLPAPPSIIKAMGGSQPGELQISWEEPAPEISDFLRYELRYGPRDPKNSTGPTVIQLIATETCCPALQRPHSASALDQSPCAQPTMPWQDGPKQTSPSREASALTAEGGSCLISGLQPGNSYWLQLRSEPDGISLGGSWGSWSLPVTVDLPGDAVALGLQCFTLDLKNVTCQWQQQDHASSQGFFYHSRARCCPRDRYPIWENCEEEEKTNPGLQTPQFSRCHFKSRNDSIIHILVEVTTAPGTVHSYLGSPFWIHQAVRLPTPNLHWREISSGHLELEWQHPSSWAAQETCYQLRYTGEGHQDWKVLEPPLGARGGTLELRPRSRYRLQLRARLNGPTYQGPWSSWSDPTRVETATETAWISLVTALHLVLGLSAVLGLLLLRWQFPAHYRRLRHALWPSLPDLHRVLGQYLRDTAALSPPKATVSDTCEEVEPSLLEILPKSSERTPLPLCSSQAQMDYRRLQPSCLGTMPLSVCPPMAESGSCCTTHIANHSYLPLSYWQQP
As to the kind of experiment: (§1) Agonist activity as induced proliferation in Ba/F3-hTpoR murine lymphocyte expressing human TPOR. It is filed as functional.
`CCOC(=O)/C(C)=C/c1ccc2[nH]c(-c3cccc(-c4ccc(C(C)(C)C)cc4)n3)nc2c1`: the EC50 entry is “Not Active”. For the compound `C/C(=C\c1cccc2[nH]c(-c3cccc(-c4ccc(C)c(C)c4)n3)nc12)C(=O)O`, the EC50 result was “Not Active”. Consider `Cc1ccc(-c2cccc(-c3nc4c(/C=C5\SC(=S)NC5=O)cccc4[nH]3)n2)cc1C`, for which the EC50 entry is recorded as “Not Active”. The same measure, in the same setting: as for `Cc1ccc(-c2cccc(-c3nc4c(C=C(C(=O)O)C(=O)O)cccc4[nH]3)n2)cc1C`, the entry is “Not Active”.

The target of another experiment is T2, Thrombopoietin receptor (Homo sapiens) (UniProt P40238).
T2 sequence (whole entry): T1 sequence (P40238 whole entry)
The experiment is described as §1. In kind it is functional.
Turning to `CC(C)(C)c1ccc(-c2cccc(-c3nc4cc(/C=C5\SC(=S)NC5=O)ccc4[nH]3)c2)cc1`, the Efficacy amounted to 137%.

Turning to `C/C(=C\c1ccc2[nH]c(-c3cccc(-c4ccc(C(C)(C)C)cc4)n3)nc2c1)C(=O)O`, the Efficacy turned out to be 109%.

On to `O=C1NC(=S)S/C1=C\c1ccc2[nH]c(-c3cccc(-c4ccc(Cl)c(Cl)c4)n3)nc2c1`, for which the Efficacy amounted to 19%. Compound `Cc1ccc(-c2ccc(-c3nc4cc(/C=C5\SC(=S)NC5=O)ccc4[nH]3)s2)cc1C` showed an Efficacy of 117%.

For `CC(C)(C)c1ccc(-c2cccc(-c3nc4cc(/C=C5\SC(=S)NC5=O)ccc4[nH]3)c2O)cc1`, the Efficacy worked out at 134%. Take `Cc1ccc(-c2csc(-c3nc4cc(/C=C5\SC(=S)NC5=O)ccc4[nH]3)c2)cc1C`: the Efficacy stood at 123%. Same read-out and setting: as for `CC(C)(C)c1ccc(-c2cccc(-c3nc4cc(CC(C(=O)O)C(=O)O)ccc4[nH]3)n2)cc1`, the figure is 13%; as for `CC(C)(C)c1ccc(-c2cccc(-c3nc4cc(/C=C5\SC(=S)NC5=O)ccc4[nH]3)n2)cc1`, 90%; as for `Cc1ccc(-c2cccc(-c3nc4cc(/C=C5\SC(=S)NC5=O)ccc4[nH]3)n2)cc1C`, 73%. Compound `CC(C)(C)c1ccc(-c2ccc(-c3nc4cc(/C=C5\SC(=S)NC5=O)ccc4[nH]3)o2)cc1` registered an Efficacy of 142%.
